Results published in patent publication US20250345318A1, “COMPOUND AND USE THEREOF IN PREVENTING OR TREATING RADIATION DAMAGE” (SIMCERE PHARMACEUTICAL CO., LTD., priority 2022, published 2025).

What was measured:
[1] = system: BEAS-2B cells; experiment: CCK-8 cell viability, JAC4 with X-ray, BEAS-2B (Example 22); type: cell-based, human; conditions: 10 μM JAC4 24 h + 4 Gy X-ray 24 h
Protocol: SPCA-1 and BEAS-2B cells were cultured in a 90%/DMEM+10% FBS+100 μg/mL ciprofloxacin culture medium. The SPCA-1 and BEAS-2B cells were pretreated for 24 h with 10 μM JAC4 and subjected to 4 Gy X-ray treatment for 24 h and then CCK-8 detection, so as to explore the influence of JAC4 in combination with X-ray on the viability of SPCA-1 and BEAS-2B cells. The specific procedures are as follows:
1. SPCA-1 and BEAS-2B cells in the exponential growth phase were plated in a 96-well plate at 5,000 cells/well in triplicate for each group.
2. After 24 h of culture, when the cells fully adhered to the container wall and returned to normal morphology, the cells were treated with X-ray radiation of 0, 4, 8, 12, 16, or 20 Gy or JAC4 at 0, 1, 5, 10, 20, or 50 μM.
3. After 24 h of treatment, CCK-8 reagent was added at 10 μL/well, and the cells were incubated in a cell incubator for 1 h. The absorbance (OD) at 450 nm was measured.
4. Cell viability equation: cell viability (%)=[…]×100%/(ODcontrol−ODblank).

[2] = system: C57BL/6 male mice; experiment: Blood biochemistry after total body irradiation (Example 3); type: in vivo
Protocol: C57BL/6 male mice (24.8±1,6 g in body weight) aged 10 weeks were divided into 4 groups of 8 mice each. After acclimating to the environment, JAC4 (100 mg/kg) or an equal volume of vehicle (polyethylene glycol:ethanol:physiological saline=47.5:7.5:50, v/v/v) was orally administered to the mice once daily for 7 consecutive days. After that, the mice in one JAC4 treatment group and one vehicle group were subjected to total body X-ray irradiation (6 Gy) and JAC4 or vehicle treatment was continued. After 3 days, the administration of JAC4 or vehicle was discontinued, and blood samples, small intestine tissues, and thymus and spleen tissues were collected 4 days later.
The biochemical results of the mice were tested, with procedures as follows: Peripheral blood was collected from the orbit into an ethylenediaminetetraacetic acid K3 tube, followed by immediate blood biochemistry analysis on a blood analyzer.

[3] = system: SPCA-1 cells; experiment: Apoptosis (Hoechst 33342) and mitochondrial membrane potential (JC-1), SPCA-1 (Example 22); type: cell-based, human
Protocol: Severe DSBs may cause apoptosis. SPCA-1 and BEAS-2B cells were plated and cultured for 24 h before they were treated with 10 μM JAC4 for 24 h and 4 Gy X-ray for 24 h. The cells were stained with Hoechst 33342 (see Hoechst staining for apoptosis detection in Example 13) to evaluate the effect of JAC4 in combination with radiation on apoptosis. […] The decrease in mitochondrial membrane potential (JC-1) is a marker event in the early stage of apoptosis. The mitochondrial membrane potential was measured using fluorescent probe JC-1. The red fluorescence indicates a high mitochondrial membrane potential leading to JC-1 aggregate formation, and the green fluorescence indicates the mitochondrial membrane potential depolarization. The fluorescence ratio of red to green reflects the mitochondrial membrane potential and the number of early apoptotic cells.

[4] = system: BEAS-2B cells transfected with JWA-knockdown plasmids; experiment: Colony formation of BEAS-2B cells transfected with JWA-knockdown plasmids (Example 22); type: cell-based, human; conditions: JAC4-treated JWA-knockdown BEAS-2B vs JAC4-treated si-Control
Protocol: (§1) 1. SPCA-1 and BEAS-2B cells (or SPCA-1 and BEAS-2B cells transfected with JWA-knockdown plasmids) in the exponential growth phase were plated in 6-well plates at a specific amount. The number of plated cells is as follows
(§2) 2. After the cells adhered to the container wall, the cells were treated (or not treated) with […] JAC4 and treated with X-ray of 0, 2, 4, or 6 Gy. The medium was replaced with a fresh medium containing JAC4 at the corresponding concentration once every 2 days (or the cells were treated with X-ray of 0, 2, 4, or 6 Gy after adhesion, and the medium was replaced with a fresh medium once every 2 days).
(§3) 3. After the cells were cultured for 10-14 days, colonies were visually observed. The culture medium was discarded, and the cells were fixed with methanol for 10-20 min, stained with crystal violet for 10 min, slowly washed with flowing clear water thrice, photographed, and counted for colonies containing>50 cells.
4. The colony forming efficiency (CFE)=(number of colonies formed/number of seeded cells) 100% was calculated, and the cell survival fraction (SF)=(colony forming efficiency of treatment group/colony forming efficiency of 0 Gy group)×100% was calculated from the colony forming efficiency. […]

[5] = system: C57BL/6 male mice; experiment: Small intestine epithelial injury after abdominal X-ray irradiation 12 Gy (Example 10); type: in vivo; conditions: for small intestine crypt height / small intestine histopathological score: JAC4 100 mg/kg; for small intestine villus length: JAC4 100 mg/kg oral 7 days
Protocol: C57BL/6 male mice (24.7±0.9 g in body weight) aged 10 weeks were divided into 3 groups: a vehicle control group (n=6), a vehicle+radiation group (n=12), and a JAC4+radiation group (n=12). JAC4 (100 mg/kg) or an equal volume of vehicle (polyethylene glycol:ethanol:physiological saline=47.5:7.5:50, v/v/v) was orally administered to the mice once daily for 7 consecutive days. After that, the mice in the radiation groups were subjected to abdominal X-ray irradiation (12 Gy). The mice in the vehicle control group (n=6), the vehicle+radiation group (n=6), and the JAC4+radiation group (n=6) were sacrificed at 6 h, and blood samples and small intestine tissues were collected. The remaining mice in the vehicle+radiation group (n=6) and the JAC4+radiation group (n=6) were sacrificed after day 8, and blood samples and small intestine tissues were collected. In the process, abdominal irradiation was given while sparing the femoral region to minimize damage to the hematopoietic system. After the abdominal irradiation, HE staining was performed on the small intestines of mice in all groups, and the small intestine villus lengths, histopathological scores of the small intestine tissue sections, and the crypt heights were measured in all groups (* p<0.05, *** p<0.001).

[6] = system: SPCA-1 cells; experiment: Plate colony formation, SPCA-1 (Example 22); type: cell-based, human
Protocol: The cell proliferation capacity was determined by a plate colony formation experiment, with the following specific procedures.
as §1, §2, §3
4. The colony forming efficiency (CFE)=(number of colonies formed/number of seeded cells) 100% was calculated, and the cell survival fraction (SF)=(colony forming efficiency of treatment group/colony forming efficiency of 0 Gy group)×100% was calculated from the colony forming efficiency.

[7] = non-radiation, JAC4 100 mg/kg oral
[8] = SPCA-1, JAC4 in combination with X-ray
[9] = 6 h after abdominal X-ray 12 Gy
[10] = day 8 after abdominal X-ray 12 Gy

SMILES: c1ccc(CSc2nnc(C3COc4ccccc4O3)o2)nc1 (stereo not drawn) [JAC4]
- BEAS-2B cell viability (CCK-8) [1]: alleviated the inhibitory effect of X-ray
- ALT ([2]; JAC4 100 mg/kg oral + TBI 6 Gy): 31.33±3.14 U/L
- AST ([2]; JAC4 100 mg/kg oral + TBI 6 Gy): 110.17±20.86 U/L
- CK-MB ([2]; JAC4 100 mg/kg oral + TBI 6 Gy): 437.67±90.38 U/L
- LDH ([2]; JAC4 100 mg/kg oral + TBI 6 Gy): 888.67±81.48 U/L
- SOD ([2]; JAC4 100 mg/kg oral + TBI 6 Gy): 133.00±6.96 U/mL
- ALT [2, 7]: 47.17±14.81 U/L
- AST [2, 7]: 140.83±38.72 U/L
- CK-MB [2, 7]: 565.50±261.37 U/L
- LDH [2, 7]: 444.00±94.58 U/L
- apoptosis (Hoechst 33342) ([3]; SPCA-1, 10 μM JAC4 24 h + 4 Gy X-ray 24 h): increased the pro-apoptotic effect of X-ray
- mitochondrial membrane potential (JC-1) [3, 8]: aggravated the decrease in mitochondrial membrane potential
- cell survival rate (radiosensitization curve) [4]: significantly decreased
- small intestine crypt height [5, 9]: 49.80±4.06 μm
- small intestine histopathological score [5, 9]: 3.17±0.41
- small intestine villus length [5, 9]: 308.25±25.65 μm
- small intestine crypt height [5, 10]: 53.76±3.33 μm
- small intestine histopathological score [5, 10]: 2.83±0.41
- small intestine villus length [5, 10]: 300.38±33.27 μm
- cell survival (radiosensitization curve) ([6]; SPCA-1, 10 μM JAC4 + X-ray vs X-ray monotherapy): significantly reduced
- number of colonies formed [6, 8]: decreased
